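96-well plates; 48 h exposure; 5 concentrations. Endpoints by linear interpolation between flanking doses. Not reached: highest tested concentration assigned. GI50 marks 50% less growth.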 Active and inactive are the calls of the source. Rule as the data show it: active = GI50 up to about 1.1 µM and inactive = higher.
How the values were obtained:
Assay in all cases: growth of human tumour cells (NCI), 48 h
RXF 393 = tested on: RXF 393
A549 = tested on: A549
KM12 = tested on: KM12
DMS-114 = tested on: DMS-114
KM-20L2 = tested on: KM-20L2
U-251 = tested on: U-251
M14 = tested on: M14
SNB-75 = tested on: SNB-75
K562 = tested on: K562
SN12C = tested on: SN12C
DMS-273 = tested on: DMS-273
SNB-78 = tested on: SNB-78
HT-29 = tested on: HT-29
CCRF-CEM = tested on: CCRF-CEM
HOP-18 = tested on: HOP-18
NCI/ADR-RES = tested on: NCI/ADR-RES

Row | Structure (SMILES) | GI50 (RXF 393) | GI50 (A549) | GI50 (KM12) | GI50 (DMS-114) | GI50 (KM-20L2) | GI50 (U-251) | GI50 (M14) | GI50 (SNB-75) | GI50 (K562) | GI50 (SN12C) | GI50 (DMS-273) | GI50 (SNB-78) | GI50 (HT-29) | GI50 (CCRF-CEM) | GI50 (HOP-18) | GI50 (NCI/ADR-RES)
1 | CC(=O)OCc1nnn2c1C(OC(C)=O)CC2 (stereo not given) | > 100 µM (inactive) | > 100 µM (inactive) | > 100 µM (inactive) | > 100 µM (inactive) | > 100 µM (inactive) | > 100 µM (inactive) | > 100 µM (inactive) | 20.1 µM (inactive) | > 100 µM (inactive) | > 100 µM (inactive) | > 100 µM (inactive) | > 100 µM (inactive) | > 100 µM (inactive) |  |  | 
2 | CC(=O)Nc1ccc(C(=O)N2N=C(C)/C(=C/c3cccc(O)c3)C2=O)cc1 |  | > 100 µM (inactive) |  | > 100 µM (inactive) |  | > 100 µM (inactive) | > 100 µM (inactive) | > 100 µM (inactive) | > 100 µM (inactive) | > 100 µM (inactive) | > 100 µM (inactive) |  | > 100 µM (inactive) | > 100 µM (inactive) |  | 
3 | c1ccc(N2CCN(CCCN3CCc4c([nH]c5ccccc45)C3c3cccnc3)CC2)cc1 (stereo not given) | > 100 µM (inactive) | > 100 µM (inactive) | 51.4 µM (inactive) | > 100 µM (inactive) | 39.4 µM (inactive) | 19.1 µM (inactive) | 20.2 µM (inactive) | > 100 µM (inactive) | 23.6 µM (inactive) | > 54.6 µM (inactive) | > 47 µM (inactive) | > 100 µM (inactive) | 22.9 µM (inactive) | 88.3 µM (inactive) | > 100 µM (inactive) | 
4 | COCOc1ccc(OC)cc1 | > 100 µM (inactive) | > 100 µM (inactive) | > 100 µM (inactive) |  | > 100 µM (inactive) | > 100 µM (inactive) |  | > 100 µM (inactive) | > 100 µM (inactive) | > 100 µM (inactive) | > 100 µM (inactive) | > 100 µM (inactive) | > 100 µM (inactive) | > 100 µM (inactive) | > 100 µM (inactive) | > 100 µM (inactive)
5 | Nc1c(-c2ccccc2[N+](=O)[O-])nc2ccccn12 | > 100 µM (inactive) |  | > 100 µM (inactive) | > 100 µM (inactive) | > 100 µM (inactive) | > 100 µM (inactive) | > 100 µM (inactive) |  | > 100 µM (inactive) | > 100 µM (inactive) | > 100 µM (inactive) |  | > 100 µM (inactive) | > 100 µM (inactive) |  | 
6 | O=C1NCCCC12CCCNC2=O | > 100 µM (inactive) | > 100 µM (inactive) | > 100 µM (inactive) | > 100 µM (inactive) | > 100 µM (inactive) | > 100 µM (inactive) | > 100 µM (inactive) |  | > 100 µM (inactive) | > 100 µM (inactive) | > 100 µM (inactive) |  | > 100 µM (inactive) | > 100 µM (inactive) |  | 
7 | CCOC(=O)C(C(=O)OCC)c1ccc([N+](=O)[O-])o1 | 12.4 µM (inactive) | 21.5 µM (inactive) | 17.5 µM (inactive) |  | 19.1 µM (inactive) | 18.7 µM (inactive) | 13.7 µM (inactive) | 20 µM (inactive) | 3.43 µM (inactive) | 18 µM (inactive) | 18 µM (inactive) | 14 µM (inactive) | 14 µM (inactive) | 2.53 µM (inactive) | 20 µM (inactive) | 
8 | CCOc1cccc2[s+]snc12 | > 100 µM (inactive) | > 100 µM (inactive) | > 100 µM (inactive) |  | > 100 µM (inactive) | 33.8 µM (inactive) | > 100 µM (inactive) | 25.6 µM (inactive) | 39.8 µM (inactive) | > 100 µM (inactive) | > 100 µM (inactive) | 49.3 µM (inactive) | > 100 µM (inactive) | 62.8 µM (inactive) | 77.8 µM (inactive) | 
9 | COc1ccc(NC(=O)C(=O)Cc2ccc([N+](=O)[O-])c([N+](=O)[O-])c2CC(=O)C(=O)Nc2ccc(OC)cc2OC)c(OC)c1 | > 100 µM (inactive) | > 100 µM (inactive) | > 100 µM (inactive) | > 100 µM (inactive) | > 100 µM (inactive) | > 100 µM (inactive) | > 100 µM (inactive) | 96.2 µM (inactive) | > 100 µM (inactive) | > 100 µM (inactive) | > 100 µM (inactive) | > 100 µM (inactive) | > 100 µM (inactive) | > 100 µM (inactive) | > 100 µM (inactive) | 
10 | Cc1ccc(N2C(=O)N(c3ccc(C)cc3)C3(SC=NN3C)C2=O)cc1 (stereo not given) | 59.6 µM (inactive) | 50.5 µM (inactive) | 47.6 µM (inactive) | 31.2 µM (inactive) | 44 µM (inactive) | > 100 µM (inactive) | 69.8 µM (inactive) | > 100 µM (inactive) | 40.6 µM (inactive) | > 100 µM (inactive) |  | > 100 µM (inactive) | 32.4 µM (inactive) | 40.6 µM (inactive) | > 100 µM (inactive) | 
11 | N/C(=N/O)N/N=C\c1cc(Cl)cc(Cl)c1O | 5.05 µM (inactive) | 1.13 µM (inactive) | 6.65 µM (inactive) |  | 5.57 µM (inactive) | 2.87 µM (inactive) |  | 1.03 µM (active) | 3.06 µM (inactive) | 1.62 µM (inactive) | 0.347 µM (active) | 21.1 µM (inactive) | 5.2 µM (inactive) | 0.193 µM (active) | 10.7 µM (inactive) | 1.32 µM (inactive)
12 | O=C1c2ccccc2-c2cccc3ccc(Cc4ccc5ccccc5c4)c1c23 | 48.2 µM (inactive) | > 100 µM (inactive) | > 100 µM (inactive) |  | > 100 µM (inactive) | 98.2 µM (inactive) | > 100 µM (inactive) | 26.4 µM (inactive) | 29.4 µM (inactive) | > 100 µM (inactive) | 88.3 µM (inactive) | > 100 µM (inactive) | > 100 µM (inactive) | > 100 µM (inactive) |  | 
13 | CC/C=C\C/C=C\C/C=C\CCCCCCCC(=O)OCC |  | > 100 µM (inactive) | > 100 µM (inactive) | > 100 µM (inactive) | > 100 µM (inactive) | > 100 µM (inactive) | > 100 µM (inactive) | > 100 µM (inactive) | > 100 µM (inactive) | > 100 µM (inactive) |  |  | > 100 µM (inactive) | > 100 µM (inactive) | > 100 µM (inactive) | 
14 | C#CCOCn1cnc2ncnc(Cl)c21 |  | > 100 µM (inactive) | > 100 µM (inactive) | > 100 µM (inactive) | > 100 µM (inactive) | > 100 µM (inactive) | > 100 µM (inactive) | > 100 µM (inactive) | > 100 µM (inactive) | > 100 µM (inactive) | > 100 µM (inactive) | > 100 µM (inactive) | > 100 µM (inactive) | > 100 µM (inactive) | > 100 µM (inactive) | 
15 | CCC1N2CCCCC2[C@@H]2c3[nH]c4ccccc4c3CCN12 (stereo not given in full) | > 100 µM (inactive) | > 100 µM (inactive) |  | > 100 µM (inactive) | > 100 µM (inactive) | > 100 µM (inactive) | > 100 µM (inactive) | 77.8 µM (inactive) | > 100 µM (inactive) | > 100 µM (inactive) | > 100 µM (inactive) | > 100 µM (inactive) | > 100 µM (inactive) | > 100 µM (inactive) | > 100 µM (inactive) | 
16 | CN1C=C(C(N)=O)Cc2ccsc21 | > 100 µM (inactive) | > 100 µM (inactive) | > 100 µM (inactive) | > 100 µM (inactive) | > 100 µM (inactive) | > 100 µM (inactive) | > 100 µM (inactive) | > 100 µM (inactive) | > 100 µM (inactive) | > 100 µM (inactive) | > 100 µM (inactive) | > 100 µM (inactive) | > 100 µM (inactive) | > 100 µM (inactive) | > 100 µM (inactive) | 
17 | S=P1(Oc2ccccc2)NNP2(=NP(N3CC3)(N3CC3)=NP(N3CC3)(N3CC3)=N2)NN1 (stereo not given) |  | > 100 µM (inactive) | > 100 µM (inactive) | > 100 µM (inactive) |  | > 100 µM (inactive) |  | 64.4 µM (inactive) | > 100 µM (inactive) | 84.1 µM (inactive) | 76.4 µM (inactive) |  | > 100 µM (inactive) | 38.9 µM (inactive) | > 100 µM (inactive) | 
18 | c1ccc(C2N=C(c3ccccn3)C(c3ccccn3)=NC2c2ccccc2)cc1 (stereo not given) | > 100 µM (inactive) | > 100 µM (inactive) | > 100 µM (inactive) | > 100 µM (inactive) | > 100 µM (inactive) | > 100 µM (inactive) | > 100 µM (inactive) |  | > 100 µM (inactive) |  | > 100 µM (inactive) | > 100 µM (inactive) | > 100 µM (inactive) | > 100 µM (inactive) | 84.7 µM (inactive) | 
19 | CCOC(=O)Nc1ccc(S(=O)(=O)OC)cc1.CCOC(=O)Nc1ccc(S(=O)(=O)OC)cc1.Cc1cn(C2CC(O)C(CO)O2)c(=O)[nH]c1=O |  | > 100 µM (inactive) | > 100 µM (inactive) | 69.7 µM (inactive) | > 100 µM (inactive) |  | > 100 µM (inactive) | > 100 µM (inactive) | 34.2 µM (inactive) | > 100 µM (inactive) | > 100 µM (inactive) | > 100 µM (inactive) | 54.8 µM (inactive) | 87.1 µM (inactive) | > 100 µM (inactive) | 
20 | CC(C)(C1=NC(C(C)(C)C)CO1)C1=N[C@@H](C(C)(C)C)CO1 (stereo not given in full) | > 100 µM (inactive) | > 100 µM (inactive) | > 100 µM (inactive) | > 100 µM (inactive) | > 100 µM (inactive) | > 100 µM (inactive) | > 100 µM (inactive) | > 100 µM (inactive) | > 100 µM (inactive) | > 100 µM (inactive) | > 100 µM (inactive) |  | > 100 µM (inactive) | > 100 µM (inactive) | > 100 µM (inactive) | 

From ChEMBL document CHEMBL1201862, “PubChem BioAssay data set” (2004)
